The values that follow come from PMC8624523, “Novel GPR120 Agonists with Improved Pharmacokinetic Profiles for the Treatment of Type 2 Diabetes” (Molecules, 2021).

The structures appear in SMILES notation. Read-outs that look alike come from different tables or passages of the source. Where only a bound is given, the exact number is not on record here.

Data set [1] concerns the target T1, hGPR40 (Homo sapiens, UniProt O14842).
T1 construct: expressed in transfected cells; host or cells: CHO cells
Set-up: method as in PMID 22519963, PMID 29100735, PMID 28642104, PMID 28947942, PMID 28374589. Conditions: cited from earlier work.

Data set [2] concerns hGPR120. The arrangement: method as in PMID 22519963, PMID 29100735, PMID 28642104, PMID 28947942, PMID 28374589. Particulars: Figure 1, literature values; cited from earlier work.
For data set [3], the target named is T2, human GPR120 (Homo sapiens, UniProt Q5NUL3).
T2 construct: expressed in transfected cells
T2 sequence (Q5NUL3 1-361): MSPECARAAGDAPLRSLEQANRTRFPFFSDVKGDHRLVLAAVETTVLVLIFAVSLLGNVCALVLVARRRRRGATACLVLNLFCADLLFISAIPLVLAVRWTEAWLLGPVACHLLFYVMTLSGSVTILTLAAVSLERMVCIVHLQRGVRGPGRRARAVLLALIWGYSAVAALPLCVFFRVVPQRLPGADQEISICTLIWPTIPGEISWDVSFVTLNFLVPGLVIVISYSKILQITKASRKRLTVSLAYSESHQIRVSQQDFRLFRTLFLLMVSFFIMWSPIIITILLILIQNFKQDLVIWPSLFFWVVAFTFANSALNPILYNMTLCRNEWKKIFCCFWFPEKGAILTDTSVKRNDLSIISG
In words: Ca2+ influx assay in CHO cells stably expressing human GPR120. It counts as cell-based. Conditions: CHO cells expressing human GPR120, Ca2+ signal, mean of three determinations. The protocol: Chinese hamster ovary (CHO) cells stably expressing human GPR120 were suspended in growth media at a concentration of 1 × 10^6 per mL. […] The cell plate was removed from the incubator, the medium was gently discarded, and the wells were washed with 100 μL of Hank’s balanced salt solution (HBSS) per well. The cells were then incubated in HBSS containing fluorescent calcium indicator Fluo-4 AM (2.5 μg/mL) and probenecid (2.5 mmol/L) for 90 min. […] The test compounds at various concentrations were added to the cells, and intracellular Ca^2+ concentrations were measured using FlexStation3 Molecular Devices. The GPR120 agonistic activities of the test compounds were expressed as A/B (increase in the intracellular Ca^2+ concentration (A) in the test compound-treated cells and (B) in vehicle-treated cells). The EC50 value of each compound was calculated using Prism software (version 5.0; GraphPad Software, San Diego, CA, USA).

Data set [4] concerns the target T1, hGPR40. In words: Calcium influx assay on hGPR40-expressing CHO cells. It counts as cell-based. Conditions: for Selectivity: GPR40 EC50 over GPR120 EC50; for EC50: hGPR40-expressing CHO cells, calcium influx, mean of three determinations, read-out: GPR40 (EC50).
Data set [5] in a line: Pharmacokinetic analysis in C57BL/6 mice after gavage administration. It is filed as in vivo. Particulars: male, mouse, plasma, po, 10 mg/kg gavage, 0.5% MC; for AUC / Cmax / half-life: mean ± SEM of four mice. Here is the method: Plasma was collected with a pipette and the proteins in the plasma were precipitated with two volumes of acetonitrile containing an internal standard. This was followed by centrifugation at 15.680 g for 10 min after vortexing for 5 min. The supernatant was diluted with acetonitrile and 10 μL of supernatant was analyzed by Waters LC-PDA-MS/MS to determine plasma drug levels. Pharmacokinetic parameters were determined using the mean data from four mice at each time point. Statistical analysis of the data was performed using the DAS 2.1.1 statistical software program (BioVoice, Shanghai, China).

Data set [6] has as its system normal ICR mice. In words: Oral glucose tolerance test in normal ICR mice. It is filed as in vivo. Conditions: fasted ICR mice. Here is the method: Male ICR starved overnight (12 h) were weighed and randomly divided into six groups (eight mice per group). […] Blood samples were collected via the tail tip before drug administration (-30 min), before glucose loading (time 0), and 15, 30, 60, and 120 min after glucose loading. Blood glucose levels were measured using blood glucose test strips (Sannuo GA-3 type, Changsha, China).

Data set [7] concerns DIO mice. In words: Anti-hyperglycemic effects (oGTT) in diet-induced obese (DIO) mice. It is filed as in vivo, C57BL/6 mice. Conditions: fasted DIO mice, 20 mg/kg gavage 30 min before oral glucose 2 g/kg. From the text:
After 1 week of adaptation, male C57BL/6 mice weighing 18–22 g, were fed a high-fat diet (45% calories from fat, from Mediscience Ltd., Yangzhou, China) ad libitum for an additional 8 weeks to induce insulin resistance. […] Blood samples were collected and measured in accordance with the oral glucose tolerance test in normal ICR mice.

T1 sequence (O14842 whole entry): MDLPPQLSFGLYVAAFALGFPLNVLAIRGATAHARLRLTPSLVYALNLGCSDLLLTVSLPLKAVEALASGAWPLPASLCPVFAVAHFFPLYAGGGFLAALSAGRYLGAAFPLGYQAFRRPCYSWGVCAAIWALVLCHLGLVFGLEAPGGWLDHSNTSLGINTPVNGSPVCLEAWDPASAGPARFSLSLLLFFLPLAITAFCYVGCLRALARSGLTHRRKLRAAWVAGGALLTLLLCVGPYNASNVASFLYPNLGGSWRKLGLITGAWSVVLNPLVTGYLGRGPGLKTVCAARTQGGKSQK

By EC50 is commonly meant the concentration needed to bring the measured effect to its halfway point. With `CO[C@H]1C[C@H](Oc2cc(F)c(F)c(-c3c(F)cc(OCCCC(=O)O)cc3F)c2)C1` [Compound 5], the EC50 in data set [1] (Figure 1, literature values) is above 100 µM; in data set [2] it was 0.093 µM.
Regarding `Cc1ccc(-n2nc(C)c3cnc(-c4ccc([C@H]5C[C@@H]5C(=O)O)cc4)cc32)nc1` [Compound 4], the 50% effective concentration (EC50) in data set [1] (Figure 1, literature values) was above 100 µM; in data set [2], 0.74 µM.
The term melting point denotes the temperature, or range, at which the solid turns liquid. The compound `Cc1cc(OCC(=O)N2CCCc3cc(F)ccc32)ccc1OCC(=O)O` [Compound 11f, 2-(4-(2-(6-Fluoro-3,4-dihydroquinolin-1(2H)-yl)-2-oxoethoxy)-2-methylphenoxy)acetic acid] had a melting point of 152 to 153 °C. For the same compound, in data set [3], the EC50 came to 0.204 µM.
On the same counts, the results for `Cc1cc(OCC(=O)N2CCCc3ccccc32)ccc1OCC(=O)O` [Compound 11e, 2-(4-(2-(3,4-Dihydroquinolin-1(2H)-yl)-2-oxoethoxy)-2-methylphenoxy)acetic acid] are 138 to 139 °C and 0.255 µM.
Consider `Cc1ccc(-c2ccc(F)cc2COc2ccc(C(C)CC(=O)O)cc2)cc1` (stereo not drawn) [Compound 2f, 3-(4-((4-Fluoro-4′-methyl-[1,1′-biphenyl]-2-yl)methoxy)phenyl)butanoic acid], for which the melting point is 100 to 101 °C. Also, in data set [4], the Selectivity was 1373 and the EC50 came out at 72.5 µM. In data set [3], this compound gave a concentration for a half-maximal effect (EC50) of 0.0528 µM.
In the case of `COc1ccc2c(c1)CCCN2C(=O)COc1ccc(OCC(=O)O)c(C)c1` [Compound 11h, 2-(4-(2-(6-Methoxy-3,4-dihydroquinolin-1(2H)-yl)-2-oxoethoxy)-2-methylphenoxy)acetic acid], the melting point lay within 141 to 142 °C. For the same compound, in data set [3], the EC50 is 0.146 µM.
For orientation: Tmax means the time from dosing to the highest level. A word on the AUC: it is the area under the concentration-time curve, a measure of exposure. Read a high AUC as high exposure. As a reminder, the Cmax is the peak of the concentration-time curve. For orientation: half-life means the time needed for the level to fall by half in the phase considered. The compound `Cc1ccc2c(c1)CCCN2C(=O)COc1ccc(OCC(=O)O)c(C)c1` [Compound 11g, 2-(2-Methyl-4-(2-(6-methyl-3,4-dihydroquinolin-1(2H)-yl)-2-oxoethoxy)phenoxy)acetic acid] yielded a melting point of 147 to 148 °C. In data set [5], the Tmax was 0.5 h, the AUC was 6.71 ± 0.467 µg·h/mL, the maximum concentration (Cmax) came to 1.85 ± 0.102 µg/mL and the half-life is 1.52 ± 0.37 h. In data set [4], the Selectivity was 1036 and the concentration for a half-maximal effect (EC50) was determined as 86.4 µM. In data set [3], this compound registered an EC50 of 0.0834 µM.
In the case of `Cc1ccc(-c2ccc(F)cc2COc2ccc(CC(C)C(=O)O)cc2)cc1` (stereo not drawn) [Compound 1f, 3-(4-((4-Fluoro-4′-methyl-[1,1′-biphenyl]-2-yl)methoxy)phenyl)-2-methylpropanoic acid], the melting point lay within 103 to 104 °C. In data set [3], this compound gave a half-maximal effective concentration (EC50) of 0.146 µM.
As to `COc1ccc2c(c1)CCCN2C(=O)COc1ccc(C(C)CC(=O)O)cc1` (stereo not drawn) [Compound 11c, 3-(4-(2-(6-Methoxy-3,4-dihydroquinolin-1(2H)-yl)-2-oxoethoxy)phenyl)butanoic acid], the melting point is 141 to 142 °C. Besides, in data set [3], the EC50 turned out to be 0.0996 µM.
`Cc1ccc(-c2ccc(F)cc2COc2ccc(CCC(=O)O)c(C)c2)cc1` [Compound 3f, 3-(4-((4-Fluoro-4′-methyl-[1,1′-biphenyl]-2-yl)methoxy)-2-methylphenyl)propanoic acid]: the melting point was 116 to 117 °C. The compound further returned an EC50 in data set [3] of 0.0902 µM.
With `Cc1ccc(-c2ccc(F)cc2COc2ccc(CCC(=O)O)c(F)c2)cc1` [Compound 4f, 3-(2-Fluoro-4-((4-fluoro-4′-methyl-[1,1′-biphenyl]-2-yl)methoxy)phenyl)propanoic acid], the melting point fell in the range of 101 to 102 °C. This compound also showed a concentration for a half-maximal effect (EC50) in data set [3] of 0.11 µM.
`Cc1ccc2c(c1)CCCN2C(=O)COc1ccc(C(C)CC(=O)O)cc1` (stereo not drawn) [Compound 11b, 3-(4-(2-(6-Methyl-3,4-dihydroquinolin-1(2H)-yl)-2-oxoethoxy)phenyl)butanoic acid] gave a melting point of 115 to 116 °C. Moreover, in data set [5], the Tmax is 0.5 h, the exposure (AUC) came out at 9.05 ± 0.435 µg·h/mL, the peak concentration (Cmax) came out at 2.53 ± 0.115 µg/mL and the half-life was 1.78 ± 0.42 h. The “anti-hyperglycemic effects compared with TUG-891” value in data set [6] (30 mg/kg, at 30 min after the oral glucose challenge) is given as “better than TUG-891”. The hypoglycemia entry in data set [6] (dose of 100 mg/kg by gavage) was “no hypoglycemia was observed”. The “blood glucose during oGTT” value in data set [6] (gavage 20 mg/kg 30 min before oral glucose 3.0 g/kg) is “significantly reduced blood glucose”. Also, the “blood glucose levels during oGTT” value in data set [6] (gavage 10, 20, 30 and 100 mg/kg 30 min before oral glucose 3.0 g/kg) is “lowered the blood glucose levels in a dose-dependent manner”. Moreover, in data set [4], the Selectivity came to 1159 and the EC50 came to 82.5 µM. Further, in data set [7], the “anti-diabetic effects (blood glucose during oGTT)” value was “equivalent to TUG-891” and the “insulin levels at 30 min after oral administration of glucose” value is recorded as “significantly increased insulin levels”. This compound displayed a half-maximal effective concentration (EC50) in data set [3] of 0.0712 µM.
Consider `Cc1ccc(-c2ccc(F)cc2COc2ccc(OCC(=O)O)c(C)c2)cc1` [Compound 6f, 2-(4-((4-Fluoro-4′-methyl-[1,1′-biphenyl]-2-yl)methoxy)-2-methylphenoxy)acetic acid], for which the melting point lay within 115 to 116 °C. In data set [4], the Selectivity is 810 and the EC50 is 58.9 µM. Further, in data set [3], a half-maximal response (EC50) required 0.0727 µM.
With `O=C(O)CCc1cc(F)c(OCc2c(-c3ccc(Cl)cc3F)nsc2C(F)(F)F)c(F)c1` [Compound 3], the EC50 in data set [1] (Figure 1, literature value) is above 5 µM; in data set [2] it was 0.042 µM.
As to `CC(CC(=O)O)c1ccc(OCC(=O)N2CCCc3ccccc32)cc1` (stereo not drawn) [Compound 11a, 3-(4-(2-(3,4-Dihydroquinolin-1(2H)-yl)-2-oxoethoxy)phenyl)butanoic acid], the melting point was 117 to 118 °C. The same compound registered a concentration giving a half-maximal response (EC50) in data set [3] of 0.113 µM.
The matching figures for `CC(CC(=O)O)c1ccc(OCC(=O)N2CCCc3cc(F)ccc32)cc1` (stereo not drawn) [Compound 11d, 3-(4-(2-(6-Fluoro-3,4-dihydroquinolin-1(2H)-yl)-2-oxoethoxy)phenyl)butanoic acid]: 124 to 130 °C and 0.187 µM.
Regarding `Cc1ccc(-c2ccc(F)cc2COc2ccc(OCC(=O)O)cc2)cc1` [Compound 5f, 2-(4-((4-Fluoro-4′-methyl-[1,1′-biphenyl]-2-yl)methoxy)phenoxy)acetic acid], the melting point is 119 to 120 °C. The compound further displayed an EC50 in data set [3] of 0.103 µM.
On the same counts, the results for `Cc1ccc(-c2ccc(F)cc2COc2ccc(OCC(=O)O)c(F)c2)cc1` [Compound 7f, 2-(2-Fluoro-4-((4-fluoro-4′-methyl-[1,1′-biphenyl]-2-yl)methoxy)phenoxy)acetic acid] are 109 to 110 °C and 0.106 µM.
Turning to `O=S1(=O)c2ccccc2CN1c1cc(F)cc(Oc2ccccn2)c1` [Compound 6], in data set [1] (at 100 uM, Figure 1, literature value), the hGPR40 activity result was “inactive”. Further, the concentration giving a half-maximal response (EC50) in data set [2] was 0.123 µM.
